Laboratory results: US8716292B2, “Riminophenazines with 2-(heteroaryl)amino substituents and their anti-microbial activity” (priority 2010, dated 2014)
Values after ≈ are worked out from the molar mass of the structure shown.

What follows are compounds tested on Mycobacterium tuberculosis H37Rv strains (assay: In vitro assay for antimicrobial susceptibility (microplate Alamar blue MIC)). Conditions: Mycobacterium tuberculosis, H37RV, 7H9, Alamar blue, inhibition ≧90%; read-out: MIC (μg/mL) against H37Rv.
Type: cell-based

`CC(C)/N=c1\cc2n(-c3ccc(F)cc3)c3ccccc3nc-2cc1Nc1ncccn1` [TBI-1053, 5-(4-Fluorophenyl)-3-(1-methylethyl)imino-2-(pyrimidin-2-yl)amino-3,5-dihydrophenazine] and `CC(C)/N=c1\cc2n(-c3ccc(Cl)cc3)c3ccccc3nc-2cc1Nc1ncccn1` [TBI-1051, 5-(4-chlorophenyl)-3-(1-methylethyl)imino-2-(pyrimidin-2-yl)amino-3,5-dihydrophenazine] are the same in MIC: 0.015 µg/mL (≈ 0.0353 µM) for the first, 0.015 µg/mL (≈ 0.034 µM) for the second.

Going from `CC(C)/N=c1\cc2n(-c3ccc(Cl)cc3)c3ccccc3nc-2cc1Nc1cnccn1` [TBI-1077] to `CC(C)/N=c1\cc2n(-c3ccc(OC(F)(F)F)cc3)c3ccccc3nc-2cc1Nc1cnccn1` [TBI-953, 5-(4-Trifluoromethoxyphenyl)-3-(1-methylethyl)imino-2-(pyrazin-2-yl)amino-3,5-dihydrophenazine], the MIC rises from < 0.0075 µg/mL to 0.015 µg/mL (≈ 0.0306 µM).

Same assay, conditions: Mycobacterium tuberculosis, H37RV, in vitro, Mycobacterium tuberculosis H37Rv strains; read-out: MIC (μg/mL) against H37Rv

First: Cc1ccc(Nc2cc3nc4ccccc4n(-c4ccc(C(F)(F)F)cc4)c-3c/c2=N\C2CCCCC2)cn1 [TBI-717, 5-(4-Trifluoromethylphenyl)-3-cyclohexylimino-2-(6-methyl-3-pyridyl)amino-3,5-dihydrophenazine]
Second: Cc1ccc(Nc2cc3nc4ccccc4n(-c4ccc(C(F)(F)F)cc4)c-3c/c2=N\C2CCC2)cn1 [TBI-738, 5-(4-Trifluoromethylphenyl)-3-cyclobutylimino-2-(6-methyl-3-pyridyl)amino-3,5-dihydrophenazine]
The MIC of the first is 1.9-fold lower: 0.015 µg/mL (≈ 0.0284 µM) for the first, 0.029 µg/mL (≈ 0.0581 µM) for the second.

First: COc1ncccc1Nc1cc2nc3ccccc3n(-c3cccc(OC(F)(F)F)c3)c-2c/c1=N\C(C)C [TBI-1038, 5-(3-Trifluoromethoxyphenylethylethyl)imino-2-(2-methoxy-3-pyridyl)amino-3,5-dihydrophenazine]
Second: COc1ncccc1Nc1cc2nc3ccccc3n(-c3ccc(OC(F)(F)F)cc3)c-2c/c1=N\C1CCOCC1 [TBI-167, 5-(4-Trifluoromethoxyphenyl)-3-(4-tetrahydropyranyl)imino-2-(2-methoxy-3-pyridyl)amino-3,5-dihydrophenazine]
The MIC of the first is 7.4-fold higher: 0.118 µg/mL (≈ 0.227 µM) for the first, 0.016 µg/mL (≈ 0.0285 µM) for the second.

Going from `COC1CCC(/N=c2\cc3n(-c4ccc(F)cc4)c4ccccc4nc-3cc2Nc2ccc(C)nc2)CC1` (centres unmarked) [TBI-1001, 5-(4-Fluorophenyl)-3-(4-methoxycyclohexyl)imino-2-(6-methyl-3-pyridyl)amino-3,5-dihydrophenazine] to `COC1CCC(/N=c2\cc3n(-c4ccc(Cl)cc4)c4ccc(F)cc4nc-3cc2Nc2ccc(C)nc2)CC1` (centres unmarked) [TBI-938, 8-Fluoro-5-(4-chlorophenyl)-3-(4-methoxycyclohexyl)imino-2-(6-methyl-3-pyridyl)amino-3,5-dihydrophenazine], the MIC rises from 0.06 µg/mL (≈ 0.118 µM) to 0.125 µg/mL (≈ 0.231 µM) (2.1-fold).

Going from `COc1ncccc1Nc1cc2nc3ccccc3n(-c3ccc(OC(F)(F)F)cc3)c-2c/c1=N\CCN1CCOCC1` [TBI-169, 5-(4-Trifluoromethoxyphenyl)-3-(2-morpholinoethyl)imino-2-(2-methoxy-3-pyridyl)amino-3,5-dihydrophenazine] to `Cc1ccc(Nc2cc3nc4ccccc4n(-c4ccc(C(F)(F)F)cc4)c-3c/c2=N\CCN2CCOCC2)cn1` [TBI-698, 5-(4-Trifluoromethylphenyl)-3-(2-morpholinoethyl)imino-2-(6-meth-3-pyridyl)amino-3,5-dihydrophenazine], the MIC rises from 0.06 µg/mL (≈ 0.102 µM) to 0.108 µg/mL (≈ 0.193 µM) (1.8-fold).

Compared with `COc1ncccc1Nc1cc2nc3cc(F)ccc3n(-c3ccc(OC(F)(F)F)cc3)c-2c/c1=N\C1CCC(OC)CC1` (centres unmarked) [TBI-861, 8-Fluoro-5-(4-trifluoromethoxyphenyl)-3-(4-methoxycyclohexyl)imino-2-(2-methoxy-3-pyridyl)amino-3,5-dihydrophenazine], `COc1ncccc1Nc1cc2nc3ccccc3n(-c3ccc(OC(F)(F)F)cc3)c-2c/c1=N\C1CCCCC1` [TBI-365, 5-(4-Trifluoromethoxyphenyl)-3-cyclohexylimino-2-(2-methoxy-3-pyridyl)amino-3,5-dihydrophenazine] is 3.2-fold lower in MIC: 0.058 µg/mL (≈ 0.0955 µM) for the first, 0.018 µg/mL (≈ 0.0322 µM) for the second.

First: COc1ccc(Nc2cc3nc4ccccc4n(-c4ccc(C)cc4)c-3c/c2=N\C(C)C)cn1 [TBI-356, 5-(4-Methylphenyl)-3-(1-methylethyl)imino-2-(6-methoxy-3-pyridyl)amino-3,5-dihydrophenazine]
Second: CSc1ccc(-n2c3c/c(=N\C(C)C)c(Nc4cccnc4)cc-3nc3ccccc32)cc1 [TBI-456, 5-(4-Methylthiophenyl)-3-(1-methylethyl)imino-2-(3-pyridyl)amino-3,5-dihydrophenazine]
The MIC of the first is 9.2-fold higher: 0.459 µg/mL (≈ 1.02 µM) for the first, 0.05 µg/mL (≈ 0.111 µM) for the second.

Compared with `Brc1ccc(-n2c3c/c(=N\C4CC4)c(Nc4cccnc4)cc-3nc3ccccc32)cc1` [TBI-090, 5-(4-Bromophenyl)-3-cyclopropylimino-2-(3-pyridyl)amino-3,5-dihydrophenazine], `Brc1ccc(-n2c3c/c(=N\C4CCOCC4)c(Nc4cccnc4)cc-3nc3ccccc32)cc1` [TBI-093, 5-(4-Bromophenyl)-3-(4-tetrahydropyranyl)imino-2-(3-pyridyl)amino-3,5-dihydrophenazine] is 10-fold higher in MIC: 0.016 µg/mL (≈ 0.0332 µM) for the first, 0.163 µg/mL (≈ 0.31 µM) for the second.

Compared with `Cc1ccc(Nc2cc3nc4ccc(F)cc4n(-c4ccc(OC(F)(F)F)cc4)c-3c/c2=N\C2CCCCC2)cn1` [TBI-853, 7-Fluoro-5-(4-trifluoromethoxyphenyl)-3-cyclohexylimino-2-(6-methyl-3-pyridyl)amino-3,5-dihydrophenazine], `CC(=O)Nc1ccc(Nc2cc3nc4ccccc4n(-c4ccc(F)cc4)c-3c/c2=N\C2CCCCC2)cn1` [TBI-916, 5-(4-Fluorophenyl)-3-cyclohexylimino-2-(6-acetamino-3-pyridyl)amino-3,5-dihydrophenazine] is 1.8-fold lower in MIC: 0.025 µg/mL (≈ 0.0445 µM) for the first, 0.014 µg/mL (≈ 0.0269 µM) for the second.

`CO[C@H]1CC[C@H](/N=c2\cc3n(-c4ccc(Cl)cc4)c4ccccc4nc-3cc2Nc2cncc(Br)c2)CC1` [TBI-881, 5-(4-Chlorophenyl)-3-(1′,4′-trans-4-methoxycyclohexyl)imino-2-(5-bromo-3-pyridyl)amino-3,5-dihydrophenazine] and `COC1CCC(/N=c2\cc3n(-c4ccccc4)c4ccccc4nc-3cc2Nc2cncc(C)c2)CC1` (centres unmarked) [TBI-084, 5-Phenyl-3-(4-methoxycyclohexyl)imino-2-(5-methyl-3-pyridyl)amino-3,5-dihydrophenazine] are within 1.5-fold of each other in MIC: 0.052 µg/mL (≈ 0.0883 µM) for the first, 0.059 µg/mL (≈ 0.121 µM) for the second.

`COc1ncccc1Nc1cc2nc3ccccc3n(-c3cccc(Cl)c3)c-2c/c1=N\C1CCOCC1` [TBI-822, 5-(3-Chlorophenyl)-3-(4-tetrahydropyranyl)imino-2-(2-methoxy-3-pyridyl)amino-3,5-dihydrophenazine] and `COc1ncccc1Nc1cc2nc3ccccc3n(-c3ccccc3Cl)c-2c/c1=N\C1CCOCC1` [TBI-870] are within 1.5-fold of each other in MIC: 0.125 µg/mL (≈ 0.244 µM) for the first, 0.084 µg/mL (≈ 0.164 µM) for the second.

Going from `O[C@H]1CC[C@H](/N=c2\cc3n(-c4ccc(F)cc4)c4ccccc4nc-3cc2Nc2cccnc2)CC1` [TBI-921, 5-(4-Fluorophenyl)-3-(1′,4′-trans-4-hydroxycyclohexyl)imino-2-(3-pyridyl)amino-3,5-dihydrophenazine] to `c1ccc(-n2c3c/c(=N\C4CCOCC4)c(Nc4cccnc4)cc-3nc3ccccc32)cc1` [TBI-058, 5-Phenyl-3-(4-tetrahydropyranyl)imino-2-(3-pyridyl)amino-3,5-dihydrophenazine], the MIC falls from 0.434 µg/mL (≈ 0.905 µM) to 0.06 µg/mL (≈ 0.134 µM) (7.2-fold).

Going from `COCC(COC)/N=c1\cc2n(-c3ccc(F)cc3)c3ccccc3nc-2cc1Nc1cccnc1OC` [TBI-1048, 5-(4-Fluorophenyl)-3-(1,3-dimethoxyisopropyl)imino-2-(2-methoxy-3-pyridyl)amino-3,5-dihydrophenazine] to `COc1ncccc1Nc1cc2nc3ccccc3n(-c3ccc(Br)cc3)c-2c/c1=N\C1CCC1` [TBI-520], the MIC falls from 0.226 µg/mL (≈ 0.44 µM) to 0.043 µg/mL (≈ 0.0817 µM) (5.3-fold).

First: Cc1ncccc1Nc1cc2nc3ccccc3n(-c3ccc(F)cc3)c-2c/c1=N\C1CCOCC1 [TBI-1012, 5-(4-Fluorophenyl)-3-(4-tetrahydropyranyl)imino-2-(2-methyl-3-pyridyl)amino-3,5-dihydrophenazine]
Second: COc1ccc(Nc2cc3nc4ccccc4n(-c4ccc(C(F)(F)F)cc4)c-3c/c2=N\C2CCOCC2)cn1 [TBI-733, 5-(4-Trifluoromethylphenyl)-3-(4-tetrahydropyranyl)imino-2-(6-methoxy-3-pyridyl)amino-3,5-dihydrophenazine]
The MIC of the first is 4.3-fold lower: 0.026 µg/mL (≈ 0.0542 µM) for the first, 0.111 µg/mL (≈ 0.203 µM) for the second.

First: FC(F)(F)Oc1cccc(-n2c3c/c(=N\C4CCOCC4)c(Nc4cccnc4)cc-3nc3ccccc32)c1 [TBI-1020, 5-(3-Trifluoromethoxyphenyl)-3-(4-tetrahydropyranyl)imino-2-(3-pyridyl)amino-3,5-dihydrophenazine]
Second: COc1ncccc1Nc1cc2nc3ccccc3n(-c3ccccc3)c-2c/c1=N\C1CC1 [TBI-097, 5-Phenyl-3-cyclopropylimino-2-(2-methoxy-3-pyridyl)amino-3,5-dihydrophenazine]
The MIC of the first is 1.8-fold higher: 0.058 µg/mL (≈ 0.109 µM) for the first, 0.032 µg/mL (≈ 0.0738 µM) for the second.

First: CSc1cccc(-n2c3c/c(=N\C(C)C)c(Nc4cccnc4)cc-3nc3ccccc32)c1 [TBI-454, 5-(3-Methylthiophenyl)-3-(1-methylethyl)imino-2-(3-pyridyl)amino-3,5-dihydrophenazine]
Second: COc1ccc2nc3cc(Nc4cccnc4OC)/c(=N/C(C)C)cc-3n(-c3ccc(Cl)cc3)c2c1 [TBI-939, 7-Methoxy-5-(4-chlorophenyl)-3-(1-methylethyl)imino-2-(2-methoxy-3-pyridyl)amino-3,5-dihydrophenazine]
The MIC of the first is 1.7-fold higher: 0.213 µg/mL (≈ 0.472 µM) for the first, 0.125 µg/mL (≈ 0.25 µM) for the second.

`COc1ncccc1Nc1cc2nc3ccccc3n(-c3ccc(Cl)cc3Cl)c-2c/c1=N\C1CC1` [TBI-370, 5-(2,4-Dichlorophenyl)-3-cyclopropylimino-2-(2-methoxy-3-pyridyl)amino-3,5-dihydrophenazine] and `COc1ncccc1Nc1cc2nc3ccccc3n(-c3ccc(Cl)cc3Cl)c-2c/c1=N\C1CCC1` [TBI-893, 5-(2,4-Dichlorophenyl)-3-cyclobutylimino-2-(2-methoxy-3-pyridyl)amino-3,5-dihydrophenazine] are within 1.5-fold of each other in MIC: 0.052 µg/mL (≈ 0.104 µM) for the first, 0.06 µg/mL (≈ 0.116 µM) for the second.

Work on `COc1ncccc1Nc1cc2nc3ccccc3n(-c3ccc(C(F)(F)F)cc3)c-2c/c1=N\C1CCCCC1` [TBI-710, 5-(4-Trifluoromethylphenyl)-3-cyclohexylimino-2-(2-methoxy-3-pyridyl)amino-3,5-dihydrophenazine] yielded an MIC of 0.03 µg/mL (≈ 0.0552 µM).

Same assay, conditions: in vitro, Mycobacterium tuberculosis H37Rv strains

In the case of `COc1ncccc1Nc1cc2nc3ccc(F)cc3n(-c3ccc(Cl)cc3)c-2c/c1=N\C(C)C` [TBI-741, 5-(4-Chlorophenyl)-3-(1-methylethyl)imino-2-(2-methoxy-3-pyridyl)amino-7-fluoro-3,5-dihydrophenazine], the “MIC (μg/mL) against H37Rv” value is reported as 0.035 µg/mL (≈ 0.0717 µM).
